The record followed here is patent US20210029993A1, “SPATIAL INHIBITORS, DETERRENTS AND REPELLENTS FOR MOSQUITOES AND MIDGES” (BEDOUKIAN RESEARCH, INC., priority 2005, published 2021).

Holding throughout (format): in vivo
Experiment [1] has as its system female mosquitoes (Aedes aegypti). In words: Mosquitoes flying test (Plexiglas module, mosquitoes flying within the apparatus). The conditions noted are these: for Flying Relative To Control: control = 1, higher = more inhibitor activity; for spatial inhibitor activity for mosquitoes (flying tests, FIGS. 2 and 4), in words: flying relative to control. As to the method: (§1) The test was conducted at 0900-2100 hours in a walk-in incubator (26° C., 63-80% RH) illuminated by fluorescent lights. Mosquitoes were tested in a two-piece Plexiglas module designed to assess their response to feeding deterrents. The bottom piece of the module was 40×7×4-cm hollow platform supporting six circular wells (diameter=3.8 cm, depth=6 mm). Water (40° C.) flowed through the central cavity of the platform at a rate of 215 ml/min. The top piece of the module consisted of six 4.5×4.0×5.0 cm chambers, the floors of which were fitted with a sliding door positioned over a circular opening 3.5 cm in diameter. Mosquitoes were introduced through an aperture 1 cm in diameter on the front wall of the chambers. For each test, five female mosquitoes (Aedes aegypti) were aspirated into each of five chambers of the top module piece and the apertures were plugged with corks wrapped in plastic film. The wells on the bottom piece of the module were filled with 7 ml of 10% sucrose solution containing ATP (2.9 mg/ml). To each well, 75 μl of green dye (McCormick Food, Hunt Valley, Md.) were added so that those mosquitoes imbibing the sugar solution could be identified when crushed at the end of the tests. Each membrane received 50 ul of acetone or experimental compound solution, applied to 9.6 cm^2 circular area on 0.1 mm-thick membranes made of nylon mesh in a silicone matrix. The membranes were then placed over each well in contact with the sugar solution.
(§2) The circular openings on the floor of each chamber of the top piece of the module were aligned with each membrane-covered well of the bottom piece. The sliding floors of the chambers were then opened allowing mosquitoes access to the membranes. The number of mosquitoes landing on the membranes, and those flying within the apparatus, were recorded each minute for five minutes. After five minutes, any mosquitoes remaining on the membranes were removed with a metal wire, and the door of the floor of each chamber was closed. The top piece of the module was then placed into a freezer for 20 minutes. In the test designed to assess feeding, mosquitoes were removed from the frozen module, crushed on white paper towels, and examined for the presence of green dye to indicate that feeding had occurred. The proportions of mosquitoes feeding per trial were analyzed using a standard generalized linear model with a logit link. Landing and flying scores are repeated measures; five reading were obtained for groups of five mosquitoes. Thus, to maintain independence among the data, the five readings were summed, and then the sums divided by 25 (the maximum score in each category) to create proportions of mosquitoes landing and flying. The proportions were then transferred using the standard variance stabilizing transformation for proportions (sin^−1 √y, where y is the proportion), and analyzed using ANOVA (Analysis of Variables)
In Table 2, weight percent (wt %) refers to the weight of the deterring/repelling/inhibiting compound, or combination of compounds, in the composition used in the tests. […] The weight ratio of the compounds in the combination of compounds is given in parentheses in the “Compound(s)” column of Table 2.

The test system of experiment [2] is female biting midges (Culicoides impunctatus). In words: Biting midges flying test (Plexiglas module). The following applies: control = 1, higher = more inhibitor activity. As to the method:
The following tests are employed to illustrate the efficacy of the compounds of this disclosure to effectively act as biting midge deterrents, repellents or as spatial inhibitors for biting midges. […] Biting midges are tested in a two-piece Plexiglas module designed to assess their response to feeding deterrents. […] Water (40° C.) flows through the central cavity of the platform at a rate of 215 ml/min. The top piece of the module consists of six 4.5×4.0×5.0 cm chambers, the floors of which are fitted with a sliding door positioned over a circular opening 3.5 cm in diameter. Biting midges are introduced through an aperture 1 cm in diameter on the front wall of the chambers. For each test, five female biting midges (Culicoides impunctatus) are aspirated into each of five chambers of the top module piece and the apertures are plugged with corks wrapped in plastic film. […] To each well, 77.5 μl of green dye (McCormick Food, Hunt Valley, Md.) are added so that those biting midges imbibing the sugar solution can be identified when crushed at the end of the tests. Each membrane receives 50 μl of acetone or experimental compound solution, applied to 9.6 cm^2 circular area on 0.1 mm-thick membranes made of nylon mesh in a silicone matrix. The membranes are then placed over each well in contact with the sugar solution. The circular openings on the floor of each chamber of the top piece of the module are aligned with each membrane-covered well of the bottom piece. The sliding floors of the chambers are then opened allowing biting midges access to the membranes. The number of biting midges landing on the membranes, and those flying within the apparatus, are recorded each minute for five minutes. After five minutes, any biting midges remaining on the membranes are removed with a metal wire, and the door of the floor of each chamber is closed. The top piece of the module is then placed into a freezer for 20 minutes. In the test designed to assess feeding, biting midges are removed from the frozen module, crushed on white paper towels, and examined for the presence of green dye to indicate that feeding had occurred. The proportions of biting midges feeding per trial are analyzed using a standard generalized linear model with a logit link. Landing and flying scores are repeated measures; five readings are obtained for groups of five biting midges. Thus, to maintain independence among the data, the five readings are summed, and then the sums divided by 25 (the maximum score in each category) to create proportions of biting midges landing and flying. The proportions are then transferred using the standard variance stabilizing transformation for proportions (sin^−1 √y, where y is the proportion), and analyzed using ANOVA (Analysis of Variables). In Table 5, weight percent (wt %) refers to the weight of the deterring/repelling/inhibiting compound, or combination of compounds, in the composition used in the tests. […] The weight ratio of the compounds in the combination of compounds is given in parentheses in the “Compound(s)” column of Table 5.

Experiment [3] concerns female mosquitoes (Aedes aegypti). In words: Mosquitoes feeding test (Plexiglas module, treated membrane over dyed sucrose/ATP solution). The conditions noted are these: for Feeding Relative To Control: control = 1.00, lower = more repellent; for contact mosquito repellent activity (feeding tests, FIGS. 1 and 3), in words: feeding relative to control. The protocol:
as §1, §2
In Table 1, weight percent (wt %) refers to the weight of the deterring/repelling/inhibiting compound, or combination of compounds, in the composition used in the tests. […] The weight ratio of the compounds in the combination of compounds is given in parentheses in the “Compound(s)” column of Table 1.

Setting [4] is: 80 wt % compound(s) in composition.
[5] abbreviates: 85 wt % compound(s) in composition.
[6] abbreviates: 77.5 wt % compound(s) in composition.
Where [7] appears, read: 92.5 wt % compound(s) in composition.
Where [8] appears, read: 82.5 wt % compound(s) in composition.
[9] abbreviates: 87.5 wt % compound(s) in composition.
Setting [10] is: 95 wt % compound(s) in composition.
Setting [11] is: 90 wt % compound(s) in composition.

In the case of `Cc1ccc(C(C)(C)O)cc1`, the “Flying Relative To Control” value in experiment [1] (setting [4]) worked out at 1.0; in experiment [2] (setting [4]), 1.2. In experiment [1], the “spatial inhibitor activity for mosquitoes (flying tests, FIGS. 2 and 4), in words” value (shortened to “spatial inhibitor activity”) is “particularly effective as spatial inhibitors for mosquitoes”. For the same compound, in experiment [3] (setting [4]), the “Feeding Relative To Control” value was determined as 0.72. In addition, the “contact mosquito repellent activity (feeding tests, FIGS. 1 and 3), in words” value (from here on “contact mosquito repellent activity”) in experiment [3] is “especially effective as contact mosquito repellents”.
Consider `C=C(C)[C@@H]1CC=C(C)[C@H](O)C1` (relative stereo) [cis-Carveol], for which the “Flying Relative To Control” value was 1.35 in experiment [1] (setting [5]) and 1.25 in experiment [2] (setting [5]). Further, the “Feeding Relative To Control” value in experiment [3] (setting [5]) turned out to be 0.66.
`C=C(C)[C@@H]1CC=C(C)[C@@H](O)C1` (relative stereo) [trans-Carveol]: the “Flying Relative To Control” value in experiment [1] (setting [6]) is recorded as 1.55; in experiment [2] (setting [6]), 1.5. Also, in experiment [3] (setting [6]), the “Feeding Relative To Control” value was 0.64.
With `C=C(C)C1CCC2(C)OC2C1` (single isomer, unassigned; (-)) [(−) Limonene oxide], the results for the “Flying Relative To Control” value in experiment [1] (setting [7]) and in experiment [2] (setting [7]) were 1.1 and 1.15, respectively. For the same compound, the “Feeding Relative To Control” value in experiment [3] (setting [7]) is on record as 0.76.
As for `CC(C)=CCCC(C)=CC=O` [Citral], the “Flying Relative To Control” value was determined as 2.0 in experiment [1] (setting [8]) and 2.15 in experiment [2] (setting [8]). Further, in experiment [1], the “spatial inhibitor activity” value is “particularly effective as spatial inhibitors for mosquitoes”. Besides, in experiment [3] (setting [8]), the “Feeding Relative To Control” value is reported as 0.60. Further, the “contact mosquito repellent activity” value in experiment [3] is “especially effective as contact mosquito repellents”.
As to `CC(C)=CCCC(C)CC=O` (stereo not shown) [Citronellal], the “Flying Relative To Control” value is recorded as 1.9 in experiment [1] (setting [7]) and 1.95 in experiment [2] (setting [7]). For the same compound, in experiment [1], the “spatial inhibitor activity” value is given as “particularly effective as spatial inhibitors for mosquitoes”. Besides, the “Feeding Relative To Control” value in experiment [3] (setting [7]) was found to be 0.62. In addition, in experiment [3], the “contact mosquito repellent activity” value is reported as “especially effective as contact mosquito repellents”.
Regarding `CC(C)=CCCC(C)CCO` (stereo not shown) [Citronellol], the “Flying Relative To Control” value in experiment [1] (setting [9]) is recorded as 1.55; in experiment [2] (setting [9]) it was 1.5. In experiment [1], the “spatial inhibitor activity” value is listed as “particularly effective as spatial inhibitors for mosquitoes”. For the same compound, the “Feeding Relative To Control” value in experiment [3] (setting [9]) is reported as 0.62.
As to `CC(=O)OCCC(C)CCC=C(C)C` (stereo not shown) [Citronellyl acetate], the “Flying Relative To Control” value in experiment [1] (setting [4]) is recorded as 1.5; in experiment [2] (setting [4]) it was 1.25. Also, the “spatial inhibitor activity” value in experiment [1] is reported as “particularly effective as spatial inhibitors for mosquitoes”. Further, in experiment [3] (setting [4]), the “Feeding Relative To Control” value was 0.65.
On to `CC(=O)OC/C=C(\C)CCC=C(C)C` [Geranyl acetate], for which the “Flying Relative To Control” value is reported as 1.75 in experiment [1] (setting [5]) and 1.5 in experiment [2] (setting [5]). Further, the “spatial inhibitor activity” value in experiment [1] was “particularly effective as spatial inhibitors for mosquitoes”. In addition, the “Feeding Relative To Control” value in experiment [3] (setting [5]) is reported as 0.68. In experiment [3], the “contact mosquito repellent activity” value is on record as “especially effective as contact mosquito repellents”.
Regarding `C=CC(C)(CCC=C(C)C)OC(C)=O` (stereo not shown) [Linaloyl acetate], the figures for the “Flying Relative To Control” value in experiment [1] (setting [10]) and in experiment [2] (setting [10]) were 1.3 and 1.2, respectively. In experiment [1], the “spatial inhibitor activity” value is given as “particularly effective as spatial inhibitors for mosquitoes”. Also, in experiment [3] (setting [10]), the “Feeding Relative To Control” value is given as 0.74. Also, in experiment [3], the “contact mosquito repellent activity” value is listed as “especially effective as contact mosquito repellents”.
Turning to `CC(=O)OC/C=C(/C)CCC=C(C)C` [Neryl acetate], the “Flying Relative To Control” value in experiment [1] (setting [6]) came to 2.0; in experiment [2] (setting [6]), 2.5. For the same compound, the “spatial inhibitor activity” value in experiment [1] is “particularly effective as spatial inhibitors for mosquitoes”. Further, in experiment [3] (setting [6]), the “Feeding Relative To Control” value is given as 0.76. In addition, the “contact mosquito repellent activity” value in experiment [3] is reported as “especially effective as contact mosquito repellents”.
Take `CC1=CCC(O)(C(C)C)CC1` (stereo not shown) [Terpinen-4-ol]: the “Flying Relative To Control” value in experiment [1] (setting [11]) is 1.7; in experiment [2] (setting [11]), 1.6. The “spatial inhibitor activity” value in experiment [1] is on record as “particularly effective as spatial inhibitors for mosquitoes”. The “Feeding Relative To Control” value in experiment [3] (setting [11]) turned out to be 0.74.
For the compound `CC(C)[C@@H]1CC[C@@H](C)C(=O)C1` [Tetrahydrocarvone], the “Flying Relative To Control” value came out at 1.65 in experiment [1] (setting [10]) and 1.7 in experiment [2] (setting [10]). Besides, in experiment [3] (setting [10]), the “Feeding Relative To Control” value came out at 0.70. Further, in experiment [3], the “contact mosquito repellent activity” value is “especially effective as contact mosquito repellents”.
